In patent US11370761B2, “Voltage-dependent T-type calcium channel inhibitor” (Nippon Chemiphar Co., Ltd., priority 2017, dated 2022):

Target: T1, human Cav3.2 channel (Homo sapiens, UniProt O95180)
T1 construct: expressed in transfected cells
Assay: Intracellular calcium concentration measurement in human Cav3.2 channel expressing stable cell line (Pharmacological Test 1)
Assay type: cell-based
Settings: HEK293 cells stably expressing human Cav3.2, Fluo-4 AM fluorescence, KCl stimulation; read-out: Cav3.2 channel inhibitory action
Excerpt: (1) Construction of Human Cav3.2 Channel Expressing Stable Cell Line
A sequence in which a HindIII site and a kozak sequence (GCCACC) was provided on a 5′ side of a human Cav3.2 channel open reading frame (ORF) gene and a KpnI site was provided on a 3′ side thereof was incorporated into pcDNA3.1(+) (Thermo Fisher Scientific #V790-20), and the resultant was transfected into a HEK293 cell (ATCC No. CRL-1573) according to a protocol of FuGENE (registered trademark) HD Transfection Reagent (Promega #E2311).
(2) Method of Measuring Intracellular Calcium Concentration
The human Cav3.2 channel expressing stable cell line prepared by the test method (1) was seeded in a 96-well plate using a Dulbecco's modified Eagle's medium (DMEM medium) containing 10% fetal bovine serum (FBS), followed by culturing 37° C. for 48 hours under a 5% CO2 condition. Thereafter, the medium was removed, and each well washed with an A buffer was treated with 80 μL of a fluorescent dye solution containing a liquid mixture of 22 μg of a calcium fluorescent indicator Fluo-4 AM (Dojindo Molecular Technologies, Inc., #F311), 20 μL of dimethyl sulfoxide (DMSO), 1 μL of 10% Pluronic F-127 (Thermo Fisher Scientific #P6866), and 4 mL of the A buffer. After being left to stand for 45 minutes at room temperature under a light shielding condition, the cells were washed with a B buffer. In DMSO having the same final concentration as the test compound as a negative control, and the test compound dissolved in DMSO to have a final concentration of 0.1%, each test compound concentration solution containing the B buffer was added to each well. The cells were left to stand for additional 15 minutes at room temperature under a light shielding condition, and were measured using microplate reader EnVision (PerkinElmer Co., Ltd.) by the following method. First, after measuring background fluorescence in each well, an ionophore was added, and baseline fluorescence was measured. Thereafter, B buffer containing added KCl at a concentration of 83.8 mM was added to each well, and an increase in fluorescence due to calcium influx caused by the stimulation was measured for 10 seconds. Inhibition percentage was calculated from the maximum fluorescence increase value from the baseline, and an IC50 value was calculated by plotting a logarithmic value of the test compound concentration and inhibition activity. The measurement was performed by observing fluorescence of 510 nm emitted when the cells were irradiated with excitation light of 485 nm.
A buffer: 140 mM NaCl, 5 mM KCl, 1 mM MgCl2, 0.5 mM CaCl2, 10 mM Glucose, 10 mM HEPES, pH 7.3
B buffer: potassium equilibrium potential: −92 mV

T1 sequence (O95180 whole entry): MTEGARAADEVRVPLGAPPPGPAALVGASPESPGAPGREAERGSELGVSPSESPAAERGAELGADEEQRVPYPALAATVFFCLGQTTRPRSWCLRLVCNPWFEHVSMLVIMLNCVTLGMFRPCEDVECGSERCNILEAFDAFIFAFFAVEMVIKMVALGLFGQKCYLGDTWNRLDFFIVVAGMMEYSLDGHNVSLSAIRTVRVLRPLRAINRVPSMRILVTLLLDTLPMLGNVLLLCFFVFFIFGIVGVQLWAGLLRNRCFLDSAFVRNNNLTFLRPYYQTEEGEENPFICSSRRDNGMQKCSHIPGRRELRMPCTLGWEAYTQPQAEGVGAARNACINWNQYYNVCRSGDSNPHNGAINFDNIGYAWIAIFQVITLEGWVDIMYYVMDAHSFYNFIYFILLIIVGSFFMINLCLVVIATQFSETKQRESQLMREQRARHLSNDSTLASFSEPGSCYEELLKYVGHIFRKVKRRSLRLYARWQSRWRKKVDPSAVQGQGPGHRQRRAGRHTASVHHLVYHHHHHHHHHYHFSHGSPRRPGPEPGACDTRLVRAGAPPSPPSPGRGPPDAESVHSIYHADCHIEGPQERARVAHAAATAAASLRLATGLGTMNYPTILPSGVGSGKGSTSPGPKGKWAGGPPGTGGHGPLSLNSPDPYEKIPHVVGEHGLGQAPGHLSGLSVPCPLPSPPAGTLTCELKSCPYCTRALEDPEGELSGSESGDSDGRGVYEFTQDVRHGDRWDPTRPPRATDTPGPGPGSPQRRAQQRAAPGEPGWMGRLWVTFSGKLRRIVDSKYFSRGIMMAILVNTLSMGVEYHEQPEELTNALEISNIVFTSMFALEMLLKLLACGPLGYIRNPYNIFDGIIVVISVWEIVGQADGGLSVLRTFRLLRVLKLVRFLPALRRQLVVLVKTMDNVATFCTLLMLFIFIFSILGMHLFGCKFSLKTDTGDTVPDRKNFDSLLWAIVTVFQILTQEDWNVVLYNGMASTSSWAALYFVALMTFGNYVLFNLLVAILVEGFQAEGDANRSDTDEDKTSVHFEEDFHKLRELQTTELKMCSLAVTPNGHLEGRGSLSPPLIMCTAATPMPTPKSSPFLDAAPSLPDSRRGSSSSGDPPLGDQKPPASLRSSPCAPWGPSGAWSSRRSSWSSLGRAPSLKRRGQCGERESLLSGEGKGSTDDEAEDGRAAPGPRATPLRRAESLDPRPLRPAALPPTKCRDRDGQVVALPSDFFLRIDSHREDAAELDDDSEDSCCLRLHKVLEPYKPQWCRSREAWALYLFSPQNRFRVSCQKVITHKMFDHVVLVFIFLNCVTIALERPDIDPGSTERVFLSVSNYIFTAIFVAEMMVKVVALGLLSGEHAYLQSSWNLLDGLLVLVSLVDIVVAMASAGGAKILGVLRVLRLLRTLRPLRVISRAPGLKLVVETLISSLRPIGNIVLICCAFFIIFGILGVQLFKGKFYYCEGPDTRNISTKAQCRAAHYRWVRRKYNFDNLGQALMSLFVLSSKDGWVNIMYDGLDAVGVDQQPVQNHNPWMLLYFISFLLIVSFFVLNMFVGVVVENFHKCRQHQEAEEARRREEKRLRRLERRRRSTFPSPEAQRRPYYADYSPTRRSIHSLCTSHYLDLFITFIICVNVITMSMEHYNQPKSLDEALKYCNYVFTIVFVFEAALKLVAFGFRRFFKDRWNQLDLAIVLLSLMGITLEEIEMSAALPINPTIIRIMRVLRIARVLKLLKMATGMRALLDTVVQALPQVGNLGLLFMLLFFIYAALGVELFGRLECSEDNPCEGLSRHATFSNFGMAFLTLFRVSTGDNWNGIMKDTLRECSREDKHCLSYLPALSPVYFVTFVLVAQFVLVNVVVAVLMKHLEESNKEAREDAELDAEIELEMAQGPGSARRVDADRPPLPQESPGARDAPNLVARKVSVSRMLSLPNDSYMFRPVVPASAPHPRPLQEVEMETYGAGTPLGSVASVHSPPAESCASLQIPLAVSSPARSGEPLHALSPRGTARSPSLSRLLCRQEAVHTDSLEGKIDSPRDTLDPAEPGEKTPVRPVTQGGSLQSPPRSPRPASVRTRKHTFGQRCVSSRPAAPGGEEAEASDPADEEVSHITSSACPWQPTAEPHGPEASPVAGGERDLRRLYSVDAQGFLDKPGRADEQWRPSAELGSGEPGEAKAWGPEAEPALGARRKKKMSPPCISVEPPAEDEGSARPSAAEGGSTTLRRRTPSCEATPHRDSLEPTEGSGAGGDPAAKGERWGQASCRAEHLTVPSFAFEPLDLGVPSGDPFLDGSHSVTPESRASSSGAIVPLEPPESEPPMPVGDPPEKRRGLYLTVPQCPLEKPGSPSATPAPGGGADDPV

Row | SMILES | IC50
1 | CCCc1ccc(NC(=O)C(C)NC(=O)C2CC2c2nc3ccccc3[nH]2)cc1 (single isomer, unassigned) [Example 1B, Trans-2-(1H-benzo[d]imidazol-2-yl)-N-(1-oxo-1-((4-propylphenyl)amino)propan-2-yl) cyclopropane-1-carboxamide] | 100 to 1000 nM
2 | CCCc1ccc(NC(=O)C(C)NC(=O)C2CC2c2nc3ccccc3[nH]2)cc1 (single isomer, unassigned) [Example 2A, Trans-2-(1H-benzo[d]imidazol-2-yl)-N-(1-oxo-1-((4-propylphenyl)amino)propan-2-yl) cyclopropane-1-carboxamide] | 100 to 1000 nM
3 | CCCc1ccc(NC(=O)C(C)NC(=O)C2CC2c2nc3ccccc3[nH]2)cc1 (single isomer, unassigned) [Example 2B, Trans-2-(1H-benzo[d]imidazol-2-yl)-N-(1-oxo-1-((4-propylphenyl)amino)propan-2-yl) cyclopropane-1-carboxamide] | > 10000 nM
4 | CC(NC(=O)C1CC1c1nc2ccccc2[nH]1)C(=O)Nc1ccc(C(F)(F)F)nc1 (single isomer, unassigned) [Example 5B, Trans-2-(1H-benzo[d]imidazol-2-yl)-N-(1-oxo-1-((6-(trifluoromethyl)pyridin-3-yl)amino)propan-2-yl) cyclopropane-1-carboxamide] | 100 to 1000 nM
5 | CC(NC(=O)C1CC1c1nc2ccccc2[nH]1)C(=O)Nc1ccc(C#N)cc1 (single isomer, unassigned) [Example 6A, Trans-2-(1H-benzo[d]imidazol-2-yl)-N-(1-((4-cyanophenyl)amino)-1-oxopropan-2-yl) cyclopropane-1-carboxamide] | 1000 to 10000 nM
6 | CC(NC(=O)C1CC1c1nc2ccccc2[nH]1)C(=O)Nc1ccc(C#N)cc1 (single isomer, unassigned) [Example 6B, Trans-2-(1H-benzo[d]imidazol-2-yl)-N-(1-((4-cyanophenyl)amino)-1-oxopropan-2-yl) cyclopropane-1-carboxamide] | 1000 to 10000 nM
7 | CC(NC(=O)C1CC1c1nc2ccccc2[nH]1)C(=O)Nc1ccc(C(C)(C)C)cc1 (single isomer, unassigned) [Example 7B, Trans-2-(1H-benzo[d]imidazol-2-yl)-N-(1-((4-(tert-butyl)phenyl)amino)-1-oxopropan-2-yl) cyclopropane-1-carboxamide] | 100 to 1000 nM
8 | CC(NC(=O)C1CC1c1nc2ccccc2[nH]1)C(=O)N(C)c1ccc(C(F)(F)F)cc1 (single isomer, unassigned) [Example 8A, Trans-2-(1H-benzo[d]imidazol-2-yl)-N-(1-(methyl(4-(trifluoromethyl)phenyl)amino)-1-oxopropan-2-yl) cyclopropane-1-carboxamide] | 100 to 1000 nM
9 | CC(NC(=O)C1CC1c1nc2ccccc2[nH]1)C(=O)N(C)c1ccc(C(F)(F)F)cc1 (single isomer, unassigned) [Example 8B, Trans-2-(1H-benzo[d]imidazol-2-yl)-N-(1-(methyl(4-(trifluoromethyl)phenyl)amino)-1-oxopropan-2-yl) cyclopropane-1-carboxamide] | 1000 to 10000 nM
10 | CC(NC(=O)C1CC1c1nc2ccccc2[nH]1)C(=O)Nc1ccc(Cl)cc1 (single isomer, unassigned) [Example 16A, Trans-2-(1H-benzo[d]imidazol-2-yl)-N-(1-((4-chlorophenyl)amino)-1-oxopropan-2-yl) cyclopropane-1-carboxamide] | 100 to 1000 nM
11 | CC(NC(=O)C1CC1c1nc2ccccc2[nH]1)C(=O)Nc1ccc(Cl)cc1 (single isomer, unassigned) [Example 16B, Trans-2-(1H-benzo[d]imidazol-2-yl)-N-(1-((4-chlorophenyl)amino)-1-oxopropan-2-yl) cyclopropane-1-carboxamide] | 1000 to 10000 nM
12 | CC(NC(=O)C1CC1c1nc2ccccc2[nH]1)C(=O)Nc1cnc(Br)cn1 (single isomer, unassigned) [Example 18B, Trans-2-(1H-benzo[d]imidazol-2-yl)-N-(1-((5-bromopyrazin-2-yl)amino)-1-oxopropan-2-yl) cyclopropane-1-carboxamide] | > 10000 nM
